Measured values reported in US20030228256A1, “Methods of achieving transplantation tolerance through radioablation of hemolymphopoietic cell populations” (priority 2002, published 2003).
Like-named read-outs stand apart in the source and are kept apart here.

Assays:
[1] = test system: donor-derived cells (BALB/c BMC) in recipients; assay: Hemolymphopoietic chimerism: percentage of donor-derived cells in recipient PBL by flow cytometry after allogeneic BMC-Tx; type: in vivo, C57BL/6 mice
Protocol: (§1) Bone marrow-derived Cell Transplantation. Balb/c mice, 8-9 weeks old, used as donors, were sacrificed on the day of the transplant. Bone marrow cells (BMC) were prepared according to a previously published regimen. Briefly, after removing femura and tibiae, and cleaning them from muscle tissue and cartilage, BMC were flushed with sterile RPMI-1640 (Mediatech, Inc, Herndon, Va.) supplemented with 0.8 mg/ml Gentamycin (Gibco, Gaithersburg, Md.), using 23G needle. BMC were filtered through a sterile nylon mesh and counted. Fully MCH-mismatched C57BL/6 recipients, 9-10 weeks of age, were injected intravenously with either 20×10^6 or 100×10^6 unmanipulated BMCs resuspended in 0.5 and 1.0 ml of HBSS Hank's Balanced Saline Solution) (Mediatech) respectively, on either day 7 or 14. Tolerance induction protocol consisted of either 150 or 500 μCi of ^153Sm-EDTMP (Berlex Laboratories Wayne, N.J.), I.V., on day—7, and 0.5 mg hamster anti-murine CD154 mAb (MR-1), purchased from Taconic (Germantown, N.Y.) administered intraperitoneally (I.P.) on days—1,0,7,14, 21 and 28.
Immunohemotyping of chimeras. Engraftment of donor-derived BMCs was ascertained by flow cytometric analysis (FCM) of recipient peripheral blood mononuclear cells (PBMCs), splenocytes, thymocytes and bone marrow cells after staining with FITC-conjugated anti-mouse H-2K^b or H-2K^d and Cy-Chrome-conjugated CD3 monoclonal antibodies (mAbs) purchased from PharMingen (San Diego, Calif.) at multiple time points during the experiment as well as at sacrifice. Cells were also assessed for non-specific staining using an Ig isotype control (FITC-conjugated mouse IgG2a and Cy-Chrome-conjugated rat IgG2b), and the percentage of cells stained with this Ab was subtracted from the values obtained from staining with the specific Ab to determine the relative number of positive cells. Reconstitution of various cell lineages was assessed using FITC-conjugated anti-mouse H-2K^b or H-2K^d and PE-conjugated anti-mouse CD19/CD22 in the B cell, PE-conjugated anti-mouse Ly-6G in the granulocyte, and PE-conjugated anti-mouse Mac-3 in the macrophage compartments. Recipient animals were first tested 1 week after BMC-Tx, every 2 weeks up to 6 weeks, and every 4 weeks thereafter. Purified anti-mouse CD16/CD32 (FcγIII/II) was used to block non-specific binding to the Fc receptors. FCM analyses were preformed using CellQuest software on a FACScan cytometer purchased from Becton Dickinson & Co. (Mountain View, Calif.).
Typing of PBL obtained from the recipient animals starting at 2 weeks following the reconstitution with donor-derived BM allogeneic cells, every two weeks up to 6 weeks post-reconstitution, and every 4 weeks afterwards was performed using anti Class I H-2^b-FITC and H-2^d-FITC. Analysis was performed on the lymphoid gate, and the values were normalized to 100%.

[2] = test system: white blood cell counts (WBC), hemolymphopoietic elements; assay: Blood counts (WBC, RBC, Hb, PLT) after single IV dose of 153Sm-EDTMP; type: in vivo, C57BL/6 mice; parameters: time at which myelodepression occurred: unit not given here
Protocol: as §1
Recipient animals (C57BL/6, H-2^b) were treated with a single IV dose of ^153Sm-EDTMP, 150 μCi or 500 μCi, prior to administration of 20×10^6 or 100×10^6 allogenic donor bone marrow cells (BMC) (BALB/c, H-2^d), also administered as a single IV dose. BMC transplantation (BMC-Tx) was performed on day 7 or 14 following the administration of ^153Sm in the presence of transient T lymphocyte co-stimulatory blockade by MR-1 (hamster anti-murine CD154 mAb) on days—1, 0, 7, 14, 21 and 28, 0.5 mg IP. […] Similar data were obtained in animals treated with ^153Sm-EDTMP and not transplanted with allogeneic BMC (not shown). […] No dramatic alterations of RBC, PLT or Hb counts were evident.

[3] = test system: donor-specific (Balb/c) and third party (C3H) skin grafts
Protocol: Full-thickness skin donor (Balb/c) and third party (C3H/HeJ) grafts were transplanted onto the lateral thoracic area of the recipients either the day following BMC-Tx, or 4 weeks following the last administration of MR-1 mAb, using techniques described previously. Briefly, square, full-thickness skin grafts (1 cm^2) were prepared from the tail skin of donors. Graft beds were prepared on the right (donor-specific) and left (third party) lateral thoracic wall of recipient mice. Grafts were fixed to the beds with 4 sutures of 5.0 silk at the corners of the graft and covered with a petroleum jelly-coated gauze and a plaster cast. The grafts were first inspected on the eighth-day following grafting, and every third day thereafter. Graft rejection was considered complete when no viable graft tissue was detected by visual inspection. Recipient mice were considered to be tolerant when donor-specific skin grafts survived in perfect condition for <150 days.
Grafts were prepared 30 days following the last administration of anti-CD154 mAb in the treated animals. Two different donor strain combinations, BALB/c (H-2^d), and C3H/J (H-2^k) were used. Each recipient received skin grafts from both strains: donor-type, BALB/c (H-2^d), as well as third-party, C3H/J (H-2^k). […] Grafts were followed for a minimum of 128 days and were considered rejected when viable tissue was no longer detected at the transplant site.

Structure (SMILES): O=P([O-])(O)CN(CCN(CP(=O)([O-])O)CP(=O)(O)O)CP(=O)([O-])O.[153Sm+3] [^153Sm-EDTMP]
- CD3+ T lymphocytes of donor origin (mixed chimerism of lymphoid lineage) ([1]; 20×10^6 BMC, anti-CD154 mAb, 153Sm-EDTMP 150 or 500 μCi): CD3+ T lymphocytes of donor origin were also present
- chimerism levels with versus without 153Sm administration ([1]; 100×10^6 BMC, anti-CD154 mAb): reproducibly higher
- CD3+ T lymphocytes of donor origin (mixed chimerism of lymphoid lineage) ([1]; 100×10^6 BMC, anti-CD154 mAb, 153Sm-EDTMP 150 or 500 μCi): CD3+ T lymphocytes of donor origin were also present
- BM engraftment ([1]; 100×10^6 BMC, anti-CD154 mAb, 153Sm-EDTMP 150 or 500 μCi, BMC on day 7 or 14, FIG. 2): BM engraftment in all recipient animals analyzed
- chimerism in recipients of allogeneic BMC ([1]; absence of co-stimulatory blockade, 20×10^6 or 100×10^6 BMC, FIGS. 4-5): transient chimerism
- multilineage chimerism (B cells, NK, granulocytes) ([1]; combination of BMC-Tx, 153Sm-EDTMP and anti-CD154 mAb, FIGS. 7 and 8): long-term, stable multilineage chimerism
- chimerism in recipients of allogeneic BMC ([1]; in the presence of costimulatory blockade (anti-CD154 mAb)): long-lasting hemolymphopoietic chimerism
- chimerism across a full allogeneic barrier ([1]; single administration prior to infusion of allogeneic bone marrow-derived cells): high levels of stable long-term chimerism
- effectiveness of lower dose 150 μCi versus higher dose 500 μCi ([1]; with BMC-Tx and MR-1 co-stimulatory blockade): as effective as the higher dose
- influence of 153Sm dose (150 vs 500 μCi) and timing of BMC-Tx on chimerism ([1]; with costimulatory blockade): do not grossly influence the results
- reversibility of myelodepression of the WBC compartment ([2]; in the presence or absence of allogeneic BMC-Tx): spontaneously reversible
- effect on red blood cell (RBC), hemoglobin (Hb) and platelet (PLT) counts ([2]; single IV dose 150 or 500 μCi): does not have significant effect
- time at which myelodepression occurred ([2]; single IV dose 150 or 500 μCi): one
- time by which myelodepression spontaneously resolved ([2]; single IV dose 150 or 500 μCi): 4-6 weeks post-administration
- myelodepression (decreased white blood cell counts) ([2]; single IV dose 150 or 500 μCi, FIG. 1): transient myelodepression
- third party (C3H/J) skin graft outcome ([3]; 20×10^6 BMC, 153Sm-EDTMP and anti-CD154 mAb): rejected within the same time frame as were donor-specific grafts placed on naïve recipients
- tolerance to donor-specific skin grafts ([3]; 20×10^6 BMC, 153Sm-EDTMP and anti-CD154 mAb, FIG. 9): tolerance to donor-specific skin grafts is obtained
- third party (C3H/J) skin graft outcome ([3]; 100×10^6 BMC, 153Sm-EDTMP and anti-CD154 mAb): rejected within the same time frame as were donor-specific grafts placed on naïve recipients
- enhancing effect of 153Sm administration on graft survival ([3]; 100×10^6 BMC, anti-CD154 mAb, FIG. 10): lost
- time donor-derived skin grafts were kept ([3]; a large percent of animals, followed up to 31 weeks post bone marrow transplantation, with anti-CD154 mAb): > 150 days
